Results taken from PubChem BioAssay AID977614 (Broad Institute, 2014).
Active and inactive are the calls of the source.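 How the source made its calls: active means parasite count per well reduced by over 3 SD from the mean, with host cell number above 80% of untreated; inactive means the rest.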

System: L. donovani amastigotes in THP-1 macrophages, DAPI imaging, 72 h
Assay: antileishmanial activity in infected macrophages – imaging, THP-1 host macrophages, single concentration (AID 977614);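 further: signal is the parasite per host cell ratio from DAPI stained kinetoplasts and nuclei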

| Structure (SMILES) | AC50 |
| --- | --- |
| O=C(CC(F)(F)F)N1C[C@H]2[C@@H](c3ccccc31)[C@@H](CO)N2C(=O)C1CCCCC1 | > 10 µM (inactive) |
| O=C(CN1CCOCC1)NC[C@@H]1N[C@@H](CO)[C@H]1c1ccc(-c2ccccc2)cc1 | > 10 µM (inactive) |
| CC(=O)N1[C@H](CO)[C@@H](c2ccccc2)[C@H]1CNC(=O)CN1CCOCC1 | > 10 µM (inactive) |
| C/C=C/c1ccc([C@@H]2[C@@H](CNC(=O)CC3CC3)N(C(=O)CC)[C@H]2CO)cc1 | > 10 µM (inactive) |
| O=C(C1CCC1)N1C[C@@H]2[C@H](c3ccccc31)[C@H](CO)N2Cc1ccccc1 | > 10 µM (inactive) |
| C/C=C/c1ccc([C@@H]2[C@@H](CNC(=O)C3CCC3)N(C(=O)NCCC)[C@H]2CO)cc1 | > 10 µM (inactive) |
| C[C@H](CO)N1C[C@H](C)[C@H](CN(C)Cc2ccc3cccnc3c2)OCc2cnnn2CCCC1=O | > 10 µM (inactive) |
| C[C@H]1CN([C@@H](C)CO)C(=O)CCCn2nncc2CO[C@@H]1CN(C)S(=O)(=O)c1ccc(Oc2ccccc2)nc1 | > 10 µM (inactive) |
| C[C@H]1CN([C@@H](C)CO)C(=O)CCCn2cc(nn2)CO[C@@H]1CN(C)C(=O)Oc1ccc2ccccc2c1 | > 10 µM (inactive) |
| OC[C@H]1[C@H]2c3ccccc3NC[C@H]2N1Cc1ccccc1Cl | > 10 µM (inactive) |
| CCCNC(=O)N1[C@H](CO)[C@H]2c3ccccc3N(C(=O)Nc3cccc(Cl)c3)C[C@H]21 | > 10 µM (inactive) |
| O=C(CC1CC1)N1[C@H](CO)[C@H]2c3ccccc3N(S(=O)(=O)c3ccccc3F)C[C@H]21 | > 10 µM (inactive) |
| C[C@@H]1CN([C@H](C)CO)C(=O)CCCn2nncc2CO[C@@H]1CN(C)Cc1cccc(C(F)(F)F)c1 | > 10 µM (inactive) |
| COc1ccccc1CN1[C@H](CO)[C@@H]2c3ccccc3N(C(=O)C3CCOCC3)C[C@@H]21 | > 10 µM (inactive) |
| C/C=C/c1ccc([C@H]2[C@@H](CO)N[C@@H]2CN(Cc2cccnc2)C(=O)C2CC2)cc1 | > 10 µM (inactive) |
| CN1C[C@@H]2[C@H](c3ccccc31)[C@H](CO)N2S(=O)(=O)c1ccccc1 | > 10 µM (inactive) |
| O=C(c1ccccn1)N1C[C@H]2[C@@H](c3ccccc31)[C@H](CO)N2C(=O)Nc1ccccc1Cl | > 10 µM (inactive) |
| C[C@@H]1CN([C@@H](C)CO)C(=O)CCCn2nncc2CO[C@@H]1CN(C)C(=O)NC1CCCC1 | > 10 µM (inactive) |
| CCCNC(=O)N1[C@H](CO)[C@@H]2c3ccccc3N(C(=O)c3ccncc3)C[C@@H]21 | > 10 µM (inactive) |
| C[C@H](CO)N1C[C@H](C)[C@@H](CN(C)S(=O)(=O)c2ccccc2C#N)OCc2cnnn2CCCC1=O | > 10 µM (inactive) |
| COCC(=O)N1[C@H](CO)[C@@H]2c3ccccc3N(C(=O)Nc3ccccc3Cl)C[C@@H]21 | > 10 µM (inactive) |
| CC(=O)N1[C@H](CO)[C@@H](c2ccccc2)[C@H]1CN(CC(C)C)C(=O)c1ccccn1 | > 10 µM (inactive) |
| COc1ccc(CN(C)C[C@H]2OCc3cnnn3CCCC(=O)N([C@@H](C)CO)C[C@H]2C)cc1 | > 10 µM (inactive) |
| COCC(=O)N(C)C[C@@H]1[C@@H](c2ccccc2)[C@H](CO)N1C(=O)Cc1ccncc1 | > 10 µM (inactive) |
| C[C@@H]1CN([C@@H](C)CO)C(=O)CCCn2nncc2CO[C@@H]1CN(C)C(=O)c1ccc2ccn(C)c2c1 | > 10 µM (inactive) |
| COc1ccc(C(=O)N2C[C@@H]3[C@H](c4ccccc42)[C@H](CO)N3C(=O)Cc2ccccn2)cc1 | > 10 µM (inactive) |

| Structure (SMILES) | AC50 |
| --- | --- |
| COc1ccc(C(=O)N2C[C@H]3[C@@H](c4ccccc42)[C@H](CO)N3C(=O)NC(C)C)cc1 | > 10 µM (inactive) |
| C[C@H]1CN([C@@H](C)CO)C(=O)CCCn2nncc2CO[C@@H]1CN(C)C(=O)Oc1cccc2ccccc12 | > 10 µM (inactive) |
| CCNC[C@@H]1[C@@H](c2ccc(-c3ccc(F)cc3)cc2)[C@@H](CO)N1C(=O)C1CC1 | > 10 µM (inactive) |
| Cc1noc(C)c1NC(=O)N(C)C[C@@H]1OCc2cn(nn2)CCCC(=O)N([C@H](C)CO)C[C@@H]1C | > 10 µM (inactive) |
| COCCNC[C@@H]1[C@@H](c2ccccc2)[C@@H](CO)N1c1nc(C)c(C)s1 | > 10 µM (inactive) |
| C/C=C/c1ccc([C@@H]2[C@@H](CO)N[C@@H]2CN(CC)C(=O)CN2CCOCC2)cc1 | > 10 µM (inactive) |
| CCNC[C@@H]1[C@H](c2ccccc2)[C@H](CO)N1C(=O)Cc1ccccn1 | > 10 µM (inactive) |
| Cc1noc(C)c1S(=O)(=O)N(C)C[C@@H]1OCc2cnnn2CCCC(=O)N([C@@H](C)CO)C[C@@H]1C | > 10 µM (inactive) |
| CC(=O)N1[C@H](CO)[C@H](c2ccc(-c3ccccc3F)cc2)[C@@H]1CNC(C)C | > 10 µM (inactive) |
| O=C(Nc1ccccc1F)N1C[C@H]2[C@@H](c3ccccc31)[C@@H](CO)N2C(=O)Cc1cccnc1 | > 10 µM (inactive) |
| C[C@H](CO)N1C[C@H](C)[C@H](CN(C)C(=O)Oc2ccc3ccccc3c2)OCc2cn(nn2)CCCC1=O | > 10 µM (inactive) |
| O=C(CC(F)(F)F)N1C[C@H]2[C@@H](c3ccccc31)[C@@H](CO)N2CC1CCOCC1 | > 10 µM (inactive) |
| COCC(=O)N1[C@H](CO)[C@H]2c3ccccc3N(C)C[C@H]21 | > 10 µM (inactive) |
| COCC(=O)N1C[C@@H]2[C@H](c3ccccc31)[C@@H](CO)N2Cc1cc(F)ccc1F | > 10 µM (inactive) |
| C[C@@H]1CN([C@H](C)CO)C(=O)CCCn2nncc2CO[C@H]1CN(C)C(=O)c1ccc(N2CCN(C)CC2)cc1 | > 10 µM (inactive) |
| CCc1csc(N2[C@H](CO)[C@H](c3ccccc3)[C@@H]2CN(C)C(=O)C2CCC2)n1 | > 10 µM (inactive) |
| O=C(C1CC1)N1C[C@H]2[C@@H](c3ccccc31)[C@@H](CO)N2C(=O)c1ccccc1 | > 10 µM (inactive) |
| CCS(=O)(=O)N(C)C[C@@H]1N[C@H](CO)[C@@H]1c1ccc(C#CC(C)C)cc1 | > 10 µM (inactive) |
| C[C@H]1CN([C@@H](C)CO)C(=O)CCCn2nncc2CO[C@H]1CN(C)S(=O)(=O)c1ccc2c(c1)OCCCO2 | > 10 µM (inactive) |
| COCC(=O)NC[C@H]1[C@H](c2ccccc2)[C@H](CO)N1C(=O)c1ccccc1 | > 10 µM (inactive) |
| CN(C[C@@H]1N[C@H](CO)[C@@H]1c1ccc(-c2cccc(F)c2)cc1)C(=O)CC1CC1 | > 10 µM (inactive) |
| C[C@@H]1CN([C@@H](C)CO)C(=O)CCCn2nncc2CO[C@H]1CN(C)Cc1ccc2cccnc2c1 | > 10 µM (inactive) |
| CN(C[C@H]1[C@@H](c2ccccc2)[C@@H](CO)N1Cc1ccccn1)S(C)(=O)=O | > 10 µM (inactive) |
| CCC(=O)N(C)C[C@H]1[C@@H](c2ccc(-c3cccc(F)c3)cc2)[C@@H](CO)N1C(C)=O | > 10 µM (inactive) |
| CC(=O)N(CC1CCC1)C[C@@H]1N[C@@H](CO)[C@H]1c1ccc(C2=CCCC2)cc1 | > 10 µM (inactive) |
| Cc1noc(C)c1NC(=O)N(C)C[C@H]1OCc2cnnn2CCCC(=O)N([C@@H](C)CO)C[C@H]1C | > 10 µM (inactive) |

| Structure (SMILES) | AC50 |
| --- | --- |
| CN1C[C@H]2[C@@H](c3ccccc31)[C@H](CO)N2Cc1ccccc1Cl | > 10 µM (inactive) |
| CC(=O)NC[C@@H]1[C@@H](c2ccc(-c3cccnc3)cc2)[C@@H](CO)N1C(=O)CC1CC1 | > 10 µM (inactive) |
| C[C@H]1CN([C@@H](C)CO)C(=O)CCCn2nncc2CO[C@H]1CN(C)Cc1ccccc1C(=O)O | > 10 µM (inactive) |
| C[C@H]1CN([C@@H](C)CO)C(=O)CCCn2nncc2CO[C@@H]1CN(C)Cc1ccccc1C(=O)O | > 10 µM (inactive) |
| C[C@@H]1CN([C@@H](C)CO)C(=O)CCCn2cc(nn2)CO[C@@H]1CN(C)C(=O)Oc1ccc2ccccc2c1 | > 10 µM (inactive) |
| COCC(=O)N1[C@H](CO)[C@H](c2ccc(C#CC(C)C)cc2)[C@@H]1CNC(C)=O | > 10 µM (inactive) |
| CCCC(=O)N1C[C@@H]2[C@H](c3ccccc31)[C@H](CO)N2C(=O)Nc1ccc(F)cc1 | > 10 µM (inactive) |
| CC(=O)N1[C@@H](CO)[C@@H]2c3ccccc3N(S(=O)(=O)c3ccccc3C)C[C@@H]21 | > 10 µM (inactive) |
| C/C=C/c1ccc([C@H]2[C@H](CO)N(C(C)=O)[C@H]2CN(CC)C(=O)CN(C)C)cc1 | > 10 µM (inactive) |
| CCCNC(=O)N(Cc1cccnc1)C[C@H]1N[C@H](CO)[C@@H]1c1ccccc1 | > 10 µM (inactive) |
| O=C(C1CCCCC1)N1[C@H](CO)[C@@H]2c3ccccc3NC[C@@H]21 | > 10 µM (inactive) |
| C/C=C/c1ccc([C@@H]2[C@H](CO)N(C(C)=O)[C@H]2CN(CC)C(=O)CN(C)C)cc1 | > 10 µM (inactive) |
| C[C@@H]1CN([C@@H](C)CO)C(=O)CCCn2nncc2CO[C@@H]1CN(C)C(=O)Nc1ccc2c(c1)OCCO2 | > 10 µM (inactive) |
| COc1cccc(C(=O)N2C[C@@H]3[C@H](c4ccccc42)[C@@H](CO)N3C(=O)c2cccc(F)c2)c1 | > 10 µM (inactive) |
| C[C@H](CO)N1C[C@H](C)[C@H](CN(C)CC2CCCCC2)OCc2cnnn2CCCC1=O | > 10 µM (inactive) |
| COc1ccccc1-c1ccc([C@H]2[C@@H](CO)N(C(C)=O)[C@@H]2CN(C)C(C)=O)cc1 | > 10 µM (inactive) |
| COc1cccc(C(=O)N2C[C@@H]3[C@H](c4ccccc42)[C@H](CO)N3C(=O)c2cccc(F)c2)c1 | > 10 µM (inactive) |
| CNC[C@@H]1OCc2cnnn2CCCC(=O)N([C@H](C)CO)C[C@H]1C | > 10 µM (inactive) |
| CCCC(=O)N1C[C@@H]2[C@H](c3ccccc31)[C@H](CO)N2Cc1cocn1 | > 10 µM (inactive) |
| O=C(Nc1ccc(Cl)cc1)N1C[C@H]2[C@@H](c3ccccc31)[C@H](CO)N2CC1CCCCC1 | > 10 µM (inactive) |
| COc1ccc(CN2[C@H](CO)[C@H]3c4ccccc4N(C(=O)NC(C)C)C[C@H]32)cc1 | > 10 µM (inactive) |
| CC(=O)N1[C@H](CO)[C@@H](c2ccccc2)[C@H]1CN(C)S(=O)(=O)c1ccccc1 | > 10 µM (inactive) |
| Cc1cccc(S(=O)(=O)N2C[C@H]3[C@@H](c4ccccc42)[C@@H](CO)N3C(=O)c2ccccc2)c1 | > 10 µM (inactive) |
| CN(C[C@@H]1[C@H](c2ccccc2)[C@@H](CO)N1Cc1ccccn1)S(C)(=O)=O | > 10 µM (inactive) |
| C[C@H](CO)N1C[C@H](C)[C@H](CN(C)Cc2cccc3c2OCCCO3)OCc2cnnn2CCCC1=O | > 10 µM (inactive) |
